Data from US20210130445A1 (priority 2019, published 2021).

B1: erenumab (antibody, chains of the INN, looked up, V domains shown)
VH: QVQLVESGGGVVQPGRSLRLSCAASGFTFSSFGMHWVRQAPGKGLEWVAVISFDGSIKYSVDSVKGRFTISRDNSKNTLFLQMNSLRAEDTAVYYCARDRLNYYDSSGYYHYKYYGMAVWGQGTTVTVSS
VL: QSVLTQPPSVSAAPGQKVTISCSGSSSNIGNNYVSWYQQLPGTAPKLLIYDNNKRPSGIPDRFSGSKSGTSTTLGITGLQTGDEADYYCGTWDSRLSAVVFGGGTKLTVL

Key:
[1] = set-up: species or system human; conditions: in vivo, sc
[2] = set-up: species or system human; unit not given here; conditions: in vivo

| Molecule | patient-reported pain [1] | duration of significant pain alleviation [2] |
| --- | --- | --- |
| onabotulinumtoxinA | pain free | one to about six |
| C[C@@H]1[C@H](c2c(F)ccc(F)c2F)C[C@H](NC(=O)c2cnc3c(c2)C[C@@]2(C3)C(=O)Nc3ncccc32)C(=O)N1CC(F)(F)F [atogepant] | pain free | – |
| B1 | – | one to about six |
